Data reported in patent publication US8513423B2 (Janssen Pharmaceutica, NV, priority 2010, dated 2013).
Where a chain is given by its changes, count along the chain named. Read-outs that look alike come from different tables or passages of the source.

Experiments:
MGL = biological target: T1, MGL (Rattus norvegicus, UniProt Q8R431); assay: 2-AG accumulation assay in rat brain homogenate; type: biochemical; conditions: compound @1 μM, read-out: Rat Brain 2AG % VehCntrl (%) @1 μM
T1 construct: one g rat brain was homogenized; from tissue; host or cells: rat brain homogenate
T1 sequence (Q8R431 1-303): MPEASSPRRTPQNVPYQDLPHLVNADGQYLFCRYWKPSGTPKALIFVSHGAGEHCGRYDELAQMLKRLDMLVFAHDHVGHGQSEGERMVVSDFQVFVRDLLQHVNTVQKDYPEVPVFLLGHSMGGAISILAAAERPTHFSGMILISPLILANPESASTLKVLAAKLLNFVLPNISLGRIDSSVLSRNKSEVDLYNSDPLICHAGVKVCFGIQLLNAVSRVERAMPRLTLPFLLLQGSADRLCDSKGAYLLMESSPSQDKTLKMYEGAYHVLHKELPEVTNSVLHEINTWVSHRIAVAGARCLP
In short: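 Inhibition of rat MGL was assessed by measuring 2-AG build-up in brain homogenate. After a 15-min preincubation at 37° C., 10 mM CaCl2 was added and the 5 mL reaction ran 15 min more at 37° C. It was quenched with 6 mL 2:1 chloroform/methanol, extracted 2-AG was measured by HPLC/MS, and accumulation with compound was expressed as a percentage of vehicle.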

[1] = biological target: T2, purified wild type MGL (wt-MGLL 6H-11-313) (Homo sapiens, UniProt Q99685); assay: MGL enzyme activity assay (4MU-B cleavage), wild type MGL; type: biochemical; conditions: 10 μM 4MU-B, 5 nM enzyme, 37° C., read-out: MGL wild type inh IC50
T2 construct: purified wild type MGL (wt-MGLL 6H-11-313)
T2 sequence (Q99685 1-303): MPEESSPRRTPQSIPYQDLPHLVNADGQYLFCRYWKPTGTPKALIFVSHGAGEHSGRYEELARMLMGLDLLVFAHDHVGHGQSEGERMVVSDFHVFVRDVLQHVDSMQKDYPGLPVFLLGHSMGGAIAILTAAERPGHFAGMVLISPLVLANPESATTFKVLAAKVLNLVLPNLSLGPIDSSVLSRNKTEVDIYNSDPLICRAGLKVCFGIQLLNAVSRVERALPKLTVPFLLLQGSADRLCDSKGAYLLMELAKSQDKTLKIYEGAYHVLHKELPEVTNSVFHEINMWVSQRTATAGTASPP
In short: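 Enzyme (5 nM final) cleaved 4MU-B (10 μM final) in 20 mM PIPES pH 7.0 with 150 mM NaCl and 0.001% Tween 20. Compounds were tested at 17 to 0.0003 μM final. Fluorescence (ex 335/em 440 nm) was monitored at 37° C for 5 min, and IC50 was fitted from fractional activity versus inhibitor concentration.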

[2] = biological target: T3, purified mutant MGL (mut-MGLL 11-313 L179S L186S) (Homo sapiens, UniProt Q99685, L169S/L176S); assay: MGL enzyme activity assay (4MU-B cleavage), mutant MGL; type: biochemical; conditions: 10 μM 4MU-B, 5 nM enzyme, 37° C., read-out: MGL mutant inh IC50
T3 construct: purified mutant MGL (mut-MGLL 11-313 L179S L186S)
T3 sequence (Q99685 1-303 L169S/L176S): T2 sequence (Q99685 1-303) with L169S, L176S
Experimental: All rate-based assays were performed in black 384-well polypropylene PCR microplates (Abgene) in a total volume of 30 μL. Substrate 4-methylumbelliferyl butyrate (4MU-B; Sigma) and either purified mutant MGL (mut-MGLL 11-313 L179S L186S) or purified wild type MGL (wt-MGLL 6H-11-313) were diluted separately into 20 mM PIPES buffer (pH=7.0), containing 150 mM NaCl and 0.001% Tween 20. Compounds of Formula (I) were pre-dispensed (50 nL) into the assay plate using a Cartesian Hummingbird prior to adding 4MU-B (25 μL of 1.2× solution to a final concentration of 10 μM) followed by enzyme (5 μL of a 6× solution to a final concentration of 5 nM) to initiate the reaction. Final compound concentrations ranged from 17 to 0.0003 μM. The fluorescence change due to 4MU-B cleavage was monitored with excitation and emission wavelengths of 335 and 440 nm, respectively, and a bandwidth of 10 nm (Safire^2, Tecan) at 37° C. for 5 min.
The IC50 values for compounds of Formula (I) were determined using Excel from a fit of the equation to the concentration-response plot of the fractional activity as a function of inhibitor concentration.

mutant MGL = biological target: T4, mutant MGL (Homo sapiens, UniProt Q99685, L169S/L176S); assay: MGL ThermoFluor assay - mutant; type: binding
T4 construct: purified mutant MGL (mut-MGLL 11-313 L179S L186S)
T4 sequence (Q99685 1-303 L169S/L176S): T2 sequence (Q99685 1-303) with L169S, L176S
In short: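 Thermal shift binding with 0.07 mg/ml L169S/L176S MGL, 100 μM 1,8-ANS, 200 mM NaCl, 0.001% Tween-20, 50 mM PIPES pH 7.0. Heated 40–90 °C at 1 °C/min, fluorescence (em 500 nm) tracked to give Tm; Kd fitted from 11-point concentration–Tm response, qKd when stocks quantified by qNMR.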

[3] = 0.07 mg/ml mutant MGL, pH=7.0, read-out: MGL mutant ThermoFluor Kd
[4] = compound concentration measured by qNMR, read-out: MGL mutant ThermoFluor qKd (using qNMR conc.)

SMILES	2-AG accumulation, percent of vehicle control at 1 µM (MGL) [%]	IC50 [1] [nM]	IC50 [2] [nM]	Kd (mutant MGL; [3]) [nM]	Kd (mutant MGL; [4]) [nM]
O=C(c1ccc(-c2ccccc2)cc1)N1CC(C2CCN(C(=O)c3cscn3)CC2)C1 [Cpd 1, 4-[1-(Biphenyl-4-ylcarbonyl)azetidin-3-yl]-1-(1,3-thiazol-4-ylcarbonyl)piperidine]	109	258	79	100	–
O=C(c1ccc(-c2ccccc2)cc1)N1CC(C2CCN(C(=O)c3nccs3)CC2)C1 [Cpd 2, 4-[1-(Biphenyl-4-ylcarbonyl)azetidin-3-yl]-1-(1,3-thiazol-2-ylcarbonyl)piperidine]	329	< 5	< 5	8.9	–
O=C(c1ccc2c(ccn2-c2ccc(F)cc2)c1)N1CCC(C2CN(C(=O)c3cscn3)C2)CC1 [Cpd 73, 1-(4-Fluorophenyl)-5-({4-[1-(1,3-thiazol-4-ylcarbonyl)azetidin-3-yl]piperidin-1-yl}carbonyl)-1H-indole]	875	12	–	–	4.8
O=C(c1ccc2c(ccn2-c2ccc(F)cc2)c1)N1CCC(C2CN(C(=O)c3ccc[nH]3)C2)CC1 [Cpd 74, 1-(4-Fluorophenyl)-5-({4-[1-(1H-pyrrol-2-ylcarbonyl)azetidin-3-yl]piperidin-1-yl}carbonyl)-1H-indole]	788	13.8	–	–	8
O=C(c1ccc2c(ccn2-c2ccc(C(F)(F)F)cc2)c1)N1CCC(C2CN(C(=O)c3cscn3)C2)CC1 [Cpd 76, 5-({4-[1(1,3-Thiazol-4-ylcarbonyl)azetidin-3-yl]piperidin-1-yl}carbonyl)-1-[4-(trifluoromethyl)phenyl]-1H-indole]	731	11.4	–	–	8.3
O=C(c1ccc2c(ccn2-c2ccc(C(F)(F)F)cc2)c1)N1CCC(C2CN(C(=O)c3ccc[nH]3)C2)CC1 [Cpd 77, 5-({4-[1-(1H-Pyrrol-2-ylcarbonyl)azetidin-3-yl]piperidin-1-yl}carbonyl)-1-[4-(trifluoromethyl)phenyl]-1H-indole]	714	< 5	–	–	5
O=C(c1ccc2c(ccn2-c2ccc(F)c(F)c2)c1)N1CCC(C2CN(C(=O)c3cscn3)C2)CC1 [Cpd 79, 1-(3,4-Difluorophenyl)-5-({4-[1-(1,3-thiazol-4-ylcarbonyl)azetidin-3-yl]piperidin-1-yl}carbonyl)-1H-indole]	946	9	–	–	3.3
O=C(c1ccc2c(ccn2-c2ccc(F)c(F)c2)c1)N1CCC(C2CN(C(=O)c3ccc[nH]3)C2)CC1 [Cpd 80, 1-(3,4-Difluorophenyl)-5-({4-[1-(1H-pyrrol-2-ylcarbonyl)azetidin-3-yl]piperidin-1-yl}carbonyl)-1H-indole]	860	< 5	–	–	4.9
